Experiments:
[1] = tested on: rats with induced renal infarctions (necrotic area of the kidney); assay: MRI experiments on animals with induced renal infarctions; format: in vivo; conditions: rat
Procedure: Plasma protein bond: 10% (Europ. Workshop on Magn. Reson. in Medicine, Santiago de Compostela, Spain, Sep. 28-30, 1994).
The induction of the renal infarctions was carried out on anesthetized (Rompun®/Ketavet®, i.p.) rats (Han. Wistar, Schering SPF, about 200 g of body weight) by occlusion of a (caudal) branch of the left renal artery. The contrast medium was administered (dose: 300 or 500 μmol of Gd/kg of body weight) about 24 hours after the induction of infarction. The animals were studied before and up to 24 hours after contrast medium administration by MR-tomography (SISCO SIS 85, 2 tesla; SE sequence, TR: 400 ms, TE: 15 ms, nt=4, ni=128, FOV: 12-7 cm, SD≈3 mm, 1 layer each axial or coronary).
After the MRI experiments were completed, the anesthetized animals were sacrificed by exsanguination (via the V. cava), and both kidneys were prepared. To verify the infarction (size and position), the left (infarcted) kidney was removed and sliced into disks, and then NBT (“vital”) coloring was carried out.

plasma protein = conditions: cited from earlier work

For CCOc1ccc(CC(CN(CCN(CC(=O)[O-])CC(=O)[O-])CC(=O)[O-])N(CC(=O)[O-])CC(=O)[O-])cc1.[Gd+3].[Na+].[Na+] (centres unmarked) [Eovist], which “MRI appearance of nonperfused portion of the kidneys” value ([1]; 300 or 500 μmol of Gd/kg i.v., immediately after substance administration) is on record?
The value was “hypointense area”.

And the “MRI signal (enhancement) in the necrotic area of the kidneys” value ([1]; 300 or 500 μmol of Gd/kg i.v., late phase (about 4-6 hours p.i.), all animals studied)?
The value was “considerable signal increase (enhancement)”.

And the “MRI signal intensity in the non-perfused area” value ([1]; 300 or 500 μmol of Gd/kg i.v., starting at about 15-30 minutes p.i.)?
The value was “increased somewhat”.

And the “Correlation of MRI delineation of the necrotic area with histological vital (NBT) coloring” value ([1]; infarcted left kidney)?
The value was “correlated very well”.

What about the Plasma protein bond (plasma protein) of the same compound?
The Plasma protein bond was 10%.

From US6495118B1, “Lipophilic metal complexes for necrosis and infarction imaging” (Schering Aktiengesellschaft, priority 1997, dated 2002)
